For one data set, the system named is HepG2 cell. Briefly: Apoptosis assay by flow cytometry (AnnexinV-FITC/PI). Format: cell-based. Here is the method:
Approximately 10^5 cells/well were plated in a 24 well plate and allowed to adhere. After 24 h, the medium was replaced with fresh culture medium containing compounds D9 at final concentrations of 4, 6, 8 μM. Nontreated wells received an equivalent volume of ethanol (<0.1%). They were trypsinized, washed in PBS and centrifuged at 2,000 rpm for 5 min. The pellet was then resuspended in 500 μL of staining solution (containing 5 μL AnnexinV-FITC and 5 μL PI in Binding Buffer), mixed gently and incubated for 15 min at room temperature (15–25 °C) in dark. The sample were then read in FACScalibur flow cytometer (BD Company, New Jersey, USA) at 488 nm excitation.
Background: Flow cytometry measures light scatter and fluorescence of single cells or particles in a stream.

For the next data set, the system named is HepG2 cell migration. Briefly: Cell migration assay (Trans well). Format: cell-based. The settings on record: 0.06, 0.08, 0.1 μM, 24 h. Here is the method: A cell migration assay was conducted as described previously (Qian et al.), with a slight modification. In brief, the cells were serum-starved overnight, and the transwells were coated with […] (ECL) cell attachment matrix (Upstate Biotechnology, Lake Placid, NY, USA) at 20 μg/mL. The top chambers of transwells were loaded with 0.2 mL of cells (4 × 10^5 cells/mL) in serum-free media, and the bottom chambers were loaded with 0.6 mL of MEM media containing 0.5% FBS. The cells were incubated in the transwells at 37 °C in 5% CO2 for 24 h. A microplate reader was used to measure the optical density of the eluted solutions in order to determine their migration values. Mean values were obtained from three individual experiments.

For the next data set, the target named is T1, EGFR (Homo sapiens, UniProt P00533).
T1 construct: EGFR cytoplasmic domain (EGFR-CD, amino acids 645–1186); (His)6 (N); made in house; host or cells: Sf-9 insect cells (baculovirus)
T1 sequence (P00533 669-1210): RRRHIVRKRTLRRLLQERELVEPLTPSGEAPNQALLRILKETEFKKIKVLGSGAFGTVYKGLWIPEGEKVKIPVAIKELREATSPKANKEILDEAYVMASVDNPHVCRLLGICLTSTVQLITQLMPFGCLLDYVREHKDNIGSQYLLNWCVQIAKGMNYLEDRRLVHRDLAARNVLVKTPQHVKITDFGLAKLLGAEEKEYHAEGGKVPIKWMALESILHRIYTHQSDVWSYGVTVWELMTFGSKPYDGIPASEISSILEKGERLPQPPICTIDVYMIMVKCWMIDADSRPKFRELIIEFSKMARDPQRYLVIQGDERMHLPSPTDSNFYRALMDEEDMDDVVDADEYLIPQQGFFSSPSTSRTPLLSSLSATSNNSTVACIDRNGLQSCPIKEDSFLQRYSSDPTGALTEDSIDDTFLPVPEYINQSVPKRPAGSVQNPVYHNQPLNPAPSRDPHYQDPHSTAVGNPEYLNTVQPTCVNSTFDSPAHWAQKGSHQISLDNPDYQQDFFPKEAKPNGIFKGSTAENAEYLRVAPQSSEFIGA
Briefly: EGFR kinase autophosphorylation assay (DELFIA/Time Resolved Fluorometry). The settings on record: enzyme incubated with compounds for 70 min. The class given is biochemical. Here is the method:
A sequence that encodes (His)6 was located at the 5' upstream to the EGFR sequences. Sf-9 cells were infected for 3 days for protein expression. Sf-9 cell pellets were solubilized at 0 °C in a buffer at pH 7.4 containing 50 mM HEPES, 10 mM NaCl, 1% Triton, 10 μM ammonium molybdate, 100 μM sodium vanadate, 10 μg/mL aprotinin, 10 μg/mL leupeptin, 10 μg/mL pepstatin, and 16 μg/mL benzamidine HCl for 20 min followed by 20 min centrifugation. Crude extract supernatant was passed through an equilibrated Ni-NTA superflow packed column and washed with 10 mM and then 100 mM imidazole to remove nonspecifically bound material. Histidine tagged proteins were eluted with 250 and 500 mM imidazole and dialyzed against 50 mM NaCl, 20 mM HEPES, 10% glycerol, and 1 μg/mL each of aprotinin, leupeptin, and pepstatin for 2 h. The entire purification procedure was performed at 4 °C or on ice.
EGFR kinase assays was set up to assess the level of autophosphorylation based on DELFIA/Time Resolved Fluorometry. […] In each well, 10 μL compound was incubated with 10 μL (5 ng for EGFR) recombinant enzyme (1:80 dilution in 100 mM HEPES) for 10 min at room temperature. Then, 10 μL of 5× buffer (containing 20 mM HEPES, 2 mM MnCl2, 100 μM Na3VO4, and 1 mM DTT) and 20 μL of 0.1 mM ATP-50 mM MgCl2 were added for 1 h. Positive and negative controls were included in each plate by incubation of enzyme with or without ATP-MgCl2.
At the end of incubation, liquid was aspirated, and plates were washed three times with wash buffer. A 75 μL (400 ng) sample of europium labeled anti-phosphotyrosine antibody was added to each well for another 1 h of incubation. After washing, enhancement solution was added and the signal was detected by Victor (Wallac Inc., Männedorf, Switzerland) with excitation at 340 nm and emission at 615 nm. The percentage of autophosphorylation inhibition by the compounds was calculated using the following equation: 100% − [[…]] (1)
The IC50 was obtained from curves of percentage inhibition with eight concentrations of compound.

Another data set concerns A431. Briefly: Cell proliferation assay (CCK8), A431. Format: cell-based. To be noted: Homo sapiens, A-431, cells incubated with compounds for 24 h. Here is the method: (§1) CCK8 is much more convenient and helpful than MTT for analyzing cell proliferation, because it can be reduced to soluble formazan by dehydrogenase in mitochondria and has little toxicity to cells. Cell proliferation was determined using CCK8 dye (Beyotime Inst. Biotech., Nanjing, China) according to the manufacturer's instructions. Briefly, 1–5 × 10^3 cells per well were seeded on a 96-well plate, and grown at 37 °C for 12 h. Subsequently, cells were treated with all synthesized compounds at increasing concentrations in the presence of 10% FBS for 24 h. After addition of 10 μL CCK8 dyeto each well, cells were incubated at 37 °C for 2 h and plates were read on a Victor-V multilabel counter (Perkin-Elmer, Männedorf, Switzerland) using the default […]. Percent inhibition or IC50 values of compounds were calculated by comparison with DMSO-treated control wells.

The test system of the next data set is HepG2. Briefly: Cell proliferation assay (CCK8), HepG2. Format: cell-based. Here is the method: as §1
The subject of the next data set is Hela. Briefly: Cell proliferation assay (CCK8), Hela. Format: cell-based. To be noted: Homo sapiens, cells incubated with compounds for 24 h. Here is the method:
as §1

Compound `CCOc1ccc(NC(=O)/C=C/c2ccc3c(c2)OCCCCO3)cc1` [Compound D9, (E)-N-(4-ethoxyphenyl)-3-(2,3,4,5-tetrahydrobenzo[b][1,4]dioxocin-8-yl)acrylamide] yielded a melting point of 137 to 139 °C. In addition, in the data set with HepG2 cell (HepG2, 4 μM), the “percentage of cell apoptosis” value is 17.99%. Further, the “percentage of cell apoptosis” value in the data set with HepG2 cell (HepG2, 6 μM) was 26.83%. In addition, the “percentage of cell apoptosis” value in the data set on HepG2 cell (HepG2, 8 μM) was 41.1%. The “amount of migrating HepG2 cells vs control” value with HepG2 cell migration is “less than control group”. At EGFR, the half-inhibitory concentration (IC50) came out at 0.36 µM. The IC50 in the data set on A431 is 7.03 µM. Moreover, the IC50 in the data set on HepG2 (Homo sapiens, HepG2, cells incubated with compounds for 24 h, CCK8) worked out at 0.79 µM. Further, in the data set on HepG2 (concentrations lower than 0.1 μM), the “effect on HepG2 cell survival ratios (CCK8 assay)” value is recorded as “no effect”. In addition, the IC50 with Hela worked out at 6.75 µM.

A word on the IC50: it is the point on the concentration scale where inhibition reaches its midpoint. In general, melting point refers to the temperature, or range, at which the solid turns liquid.

These data come from publication PMC6271756, “Synthesis of Caffeic Acid Amides Bearing 2,3,4,5-Tetra-hydrobenzo[b][1,4]dioxocine Moieties and Their Biological Evaluation as Antitumor Agents” (Molecules, 2014).
